The test system of assay [1] is Palivizumab. Briefly: Microtiter plate chromatography of resins, Palivizumab (bound, yield). Type of assay: binding, humanized. As to the method:
(§1) Resins were assessed in packed mode by microtiter plate chromatography. For each column, approximately 30 μl of resin were transferred to a 384-well filter plate and sealed with appropriate top frits.
(§2) Columns were equilibrated with 6.7 column volumes (cv) of phosphate buffered saline (0.15 M NaCl, 20 mM sodium phosphate, pH 7.3; PBS) prior to injection. Either 3.3 cv of whole IgGs dissolved at 0.75 mg ml^−1, Fab or Fc fragments dissolved at 0.25 mg ml^−1 (all three in PBS) or host cell proteins (HCP) were injected onto columns. Antibody fragments of Bevacizumab (Fab and Fc) were prepared by cleavage of whole IgG with papain protease (3) according to the protocol of the manufacturer. […] Volumes transferred were spun through columns at 50 g for 1-2 min. During injection of samples, acceleration was reduced to 10 g and centrifugation time increased to 5-10 min. Effluent fractions were collected in 384-well plates and concentrations of protein analyzed by Bradford assay. Protein masses mi, mft and me (see below) were calculated as the product of fraction volume and measured protein concentration.
(§3) The fraction of ‘bound’ protein was calculated as the difference between the total mass of protein injected mi and the mass of protein detected in the flowthrough mft, divided by the total mass of protein injected.
(§4) The ‘yield’ of protein was calculated as the mass of protein eluted me, divided by the mass of protein injected mi.
(§5) the fraction of ‘bound’ protein and the ‘yield’ of protein were calculated for each resin based on data for whole IgG-antibodies. In the case of Bevacizumab fragments and host cell proteins, only the fraction of ‘bound’ protein is given. Selectivity of resins was calculated from data for Bevacizumab Whole IgG and host cell proteins. Due to limited experimental precision, selectivity was truncated beyond values of 10.

For assay [2], the system named is host cell proteins (HCP). Briefly: Microtiter plate chromatography of resins, host cell proteins (bound). It is filed as binding, CHO. The note with it: host cell proteins. As to the method: Flowthrough from protein A chromatography (referred to as host cell proteins) was derived from the supernatant of antibody-producing CHO cell culture in serum-free medium.
as §1, §2, §3, §5

The target of assay [3] is T1, Bevacizumab (Homo sapiens, UniProt P01857).
T1 construct: fused on or other part: humanised anti-VEGF-A VH domain N-terminal of the gamma-1 constant region (engineered, no UniProt entry)
Briefly: Microtiter plate chromatography of resins, Bevacizumab whole IgG (bound, yield, selectivity). It is filed as binding, humanized. The note with it: for Bevacizumab IgG Bound (%): fraction of whole IgG Bevacizumab bound to resin; for Bevacizumab IgG Yield (%): mass of whole IgG Bevacizumab eluted / mass injected. As to the method: as §1, §2, §3, §4
(§6) The ‘selectivity’ of resins was calculated as the fraction of bound antibody BAb, divided by the fraction of bound host cell proteins BHCP.
as §5

The subject of assay [4] is Bevacizumab. The assay is described as above. It is filed as binding, humanized. As to the method:
as §1, §2, §3, §4, §6, §5

The subject of assay [5] is Tocilizumab. Briefly: Microtiter plate chromatography of resins, Tocilizumab (bound, yield). Type of assay: binding, humanized. How it is done: as §1, §2, §3, §4, §5
The test system of assay [6] is human poly-IgG (h-poly-IgG). Briefly: Microtiter plate chromatography of resins, human poly-IgG (bound, yield). It is filed as binding. As to the method:
as §1, §2, §3, §4, §5

On to `COc1ccc(NC(=O)c2cncc(-c3ccc(C(F)(F)F)cc3)c2)cc1C(=O)NCCCN` [Ligand L12, 2-Methoxy-5-{3-[4-(trifluoromethyl)phenyl]pyridin-5-yl}carboxamidobenzoic acid N-(3-aminopropyl)amide], for which, in assay [1], the “Palivizumab Bound (%)” value is given as 52% and the “Palivizumab Yield (%)” value was 41%. Moreover, the “HCP Bound (%)” value in assay [2] came to 63%. For the same compound, in assay [3], the “Bevacizumab IgG Bound (%)” value is on record as 100% and the “Bevacizumab IgG Yield (%)” value came to 50%. The Selectivity in assay [4] is 1.6. In assay [5], the “Tocilizumab Bound (%)” value was determined as 61% and the “Tocilizumab Yield (%)” value is 49%. Also, in assay [6], the “h-poly-IgG Bound (%)” value is on record as 68% and the “h-poly-IgG Yield (%)” value was determined as 37%.

For the compound `COc1ccc(NC(=O)c2cncc(-c3cc4ccccc4s3)c2)cc1C(=O)NCCCN` [Ligand L14, 5-[3-(2-Benzothienyl)pyridin-5-yl]carboxamido-2-methoxybenzoic acid N-(3-aminopropyl)amide], in assay [1], the “Palivizumab Bound (%)” value is reported as 66% and the “Palivizumab Yield (%)” value came out at 61%. Moreover, the “HCP Bound (%)” value in assay [2] is 74%. Further, in assay [3], the “Bevacizumab IgG Bound (%)” value was determined as 99% and the “Bevacizumab IgG Yield (%)” value is given as 89%. Also, the Selectivity in assay [4] is 1.3. In addition, in assay [5], the “Tocilizumab Bound (%)” value stood at 82% and the “Tocilizumab Yield (%)” value was 74%. In addition, in assay [6], the “h-poly-IgG Bound (%)” value stood at 73% and the “h-poly-IgG Yield (%)” value worked out at 62%.

In the case of `COc1ccc(NC(=O)c2cc(-c3ccccc3)n(C)n2)cc1C(=O)NCCCN` [Ligand L15, 2-Methoxy-5-(1-methyl-5-phenylpyrazol-3-yl)carboxamidobenzoic acid N-(3-aminopropyl)amide], in assay [1], the “Palivizumab Bound (%)” value is 100% and the “Palivizumab Yield (%)” value turned out to be 90%. Also, the “HCP Bound (%)” value in assay [2] is 64%. Also, in assay [3], the “Bevacizumab IgG Bound (%)” value is 99% and the “Bevacizumab IgG Yield (%)” value came out at 94%. This compound also yielded a Selectivity in assay [4] of 1.6. In assay [5], the “Tocilizumab Bound (%)” value worked out at 100% and the “Tocilizumab Yield (%)” value stood at 98%. Besides, in assay [6], the “h-poly-IgG Bound (%)” value is recorded as 98% and the “h-poly-IgG Yield (%)” value is given as 83%.

Turning to `COc1ccc(NC(=O)c2cc(-c3cccn3C)n(C)n2)cc1C(=O)NCCCN` [Ligand L16, 2-Methoxy-5-[5-(1-methyl-2-pyrrolyl)-1-methylpyrazol-3-yl]carboxamidobenzoic acid N-(3-aminopropyl)amide], in assay [1], the “Palivizumab Bound (%)” value was found to be 100% and the “Palivizumab Yield (%)” value is given as 90%. In addition, in assay [2], the “HCP Bound (%)” value is given as 51%. Further, in assay [3], the “Bevacizumab IgG Bound (%)” value turned out to be 100% and the “Bevacizumab IgG Yield (%)” value came to 93%. For the same compound, the Selectivity in assay [4] is given as 2.0. Besides, in assay [5], the “Tocilizumab Bound (%)” value worked out at 100% and the “Tocilizumab Yield (%)” value was determined as 96%. Also, in assay [6], the “h-poly-IgG Bound (%)” value is 96% and the “h-poly-IgG Yield (%)” value came out at 83%.

Turning to `Cn1nc(C(=O)Nc2ccc(C(=O)NCCCN)cc2)cc1-c1ccco1` [Ligand L18, 4-[5-(2-Furyl)-1-methylpyrazol-3-yl]carboxamidobenzoic acid N-(3-aminopropyl)amide], in assay [1], the “Palivizumab Bound (%)” value is recorded as 54% and the “Palivizumab Yield (%)” value was found to be 43%. The “HCP Bound (%)” value in assay [2] was 46%. Besides, in assay [3], the “Bevacizumab IgG Bound (%)” value is given as 100% and the “Bevacizumab IgG Yield (%)” value is 95%. In assay [4], this compound gave a Selectivity of 2.2. Moreover, in assay [5], the “Tocilizumab Bound (%)” value amounted to 76% and the “Tocilizumab Yield (%)” value was found to be 76%. Moreover, in assay [6], the “h-poly-IgG Bound (%)” value worked out at 68% and the “h-poly-IgG Yield (%)” value was determined as 71%.

With `Cn1nc(C(=O)Nc2nc(C(=O)NCCCN)cs2)cc1-c1cccs1` [Ligand L19, 2-[1-Methyl-5-(2-thienyl)pyrazol-3-yl]carboxamidothiazole-4-carboxylic acid N-(3-aminopropyl)amide], in assay [1], the “Palivizumab Bound (%)” value came to 18% and the “Palivizumab Yield (%)” value came to 16%. In assay [2], the “HCP Bound (%)” value came out at 56%. Also, in assay [3], the “Bevacizumab IgG Bound (%)” value stood at 100% and the “Bevacizumab IgG Yield (%)” value was determined as 99%. In assay [4], this compound returned a Selectivity of 1.8. In addition, in assay [5], the “Tocilizumab Bound (%)” value came to 47% and the “Tocilizumab Yield (%)” value is 48%. For the same compound, in assay [6], the “h-poly-IgG Bound (%)” value was determined as 49% and the “h-poly-IgG Yield (%)” value stood at 48%.

With `COc1ccc(NC(=O)c2cc(-c3ccco3)[nH]n2)cc1C(=O)NCCCN` [Ligand L20, 5-[5-(2-Furyl)pyrazol-3-yl]carboxamido-2-methoxybenzoic acid N-(3-aminopropyl)amide], in assay [1], the “Palivizumab Bound (%)” value came to 97% and the “Palivizumab Yield (%)” value was determined as 84%. Moreover, in assay [2], the “HCP Bound (%)” value is 47%. In assay [3], the “Bevacizumab IgG Bound (%)” value was determined as 100% and the “Bevacizumab IgG Yield (%)” value came out at 96%. The Selectivity in assay [4] amounted to 2.1. In addition, in assay [5], the “Tocilizumab Bound (%)” value is on record as 100% and the “Tocilizumab Yield (%)” value was found to be 96%. In assay [6], the “h-poly-IgG Bound (%)” value worked out at 93% and the “h-poly-IgG Yield (%)” value worked out at 82%.

Regarding `NCCCNC(=O)c1cccc(C(=O)Nc2cc(-c3ccco3)[nH]n2)c1` [Ligand L21, 3-{N-[5-(2-Furyl)pyrazol-3-yl]carbamoyl}benzoic acid N′-(3-aminopropyl)amide], in assay [1], the “Palivizumab Bound (%)” value is 26% and the “Palivizumab Yield (%)” value is on record as 26%. Also, the “HCP Bound (%)” value in assay [2] amounted to 50%. In addition, in assay [3], the “Bevacizumab IgG Bound (%)” value is 99% and the “Bevacizumab IgG Yield (%)” value is recorded as 95%. The compound also registered a Selectivity in assay [4] of 2.0. Also, in assay [5], the “Tocilizumab Bound (%)” value amounted to 52% and the “Tocilizumab Yield (%)” value is on record as 53%. Further, in assay [6], the “h-poly-IgG Bound (%)” value was determined as 54% and the “h-poly-IgG Yield (%)” value was determined as 61%.

On to `COc1ccc(NC(=O)c2cn(C)c3ccccc23)cc1C(=O)NCCCN` [Ligand L25, 2-Methoxy-5-(1-methylindol-3-yl)carboxamidobenzoic acid N-(3-aminopropyl)amide], for which, in assay [1], the “Palivizumab Bound (%)” value came out at 82% and the “Palivizumab Yield (%)” value is recorded as 78%. Moreover, the “HCP Bound (%)” value in assay [2] is given as 46%. Also, in assay [3], the “Bevacizumab IgG Bound (%)” value is recorded as 100% and the “Bevacizumab IgG Yield (%)” value is 95%. For the same compound, the Selectivity in assay [4] worked out at 2.2. Moreover, in assay [5], the “Tocilizumab Bound (%)” value is reported as 100% and the “Tocilizumab Yield (%)” value was 93%. In addition, in assay [6], the “h-poly-IgG Bound (%)” value came to 93% and the “h-poly-IgG Yield (%)” value is on record as 81%.

Consider `COc1ccc(NC(=O)c2c[nH]c3ccccc23)cc1C(=O)NCCCN` [Ligand L26, 5-(Indol-3-yl)carboxamido-2-methoxybenzoic acid N-(3-aminopropyl)amide], for which, in assay [1], the “Palivizumab Bound (%)” value is given as 58% and the “Palivizumab Yield (%)” value is reported as 59%. Further, in assay [2], the “HCP Bound (%)” value is reported as 42%. Besides, in assay [3], the “Bevacizumab IgG Bound (%)” value was determined as 100% and the “Bevacizumab IgG Yield (%)” value was determined as 94%. This compound yielded a Selectivity in assay [4] of 2.4. For the same compound, in assay [5], the “Tocilizumab Bound (%)” value was determined as 77% and the “Tocilizumab Yield (%)” value is 84%. Besides, in assay [6], the “h-poly-IgG Bound (%)” value amounted to 75% and the “h-poly-IgG Yield (%)” value is 74%.

The values above are taken from patent publication US20130131321A1, “LIGANDS FOR ANTIBODY AND Fc-FUSION PROTEIN PURIFICATION BY AFFINITY CHROMATOGRAPHY” (GRAFFINITY PHARMACEUTICALS GMBH, priority 2010, published 2013).
